Measurements reported in article PMC3170264 (Retrovirology, 2011).

How the values were obtained:
HIV-2 IN N155H = HIV-2 IN N155H (Human immunodeficiency virus type 2 subtype B, UniProt Q89928, I1218V/I1301V/I1372V/M1455R/N1185G/N1323H/N1438H/R1202K/R1392Q/T1348V/T1383A/V1460M); conditions: N155H in N1 background; 200 nM IN
Procedure: (§1) Mutations were introduced in the HIV-2 N1 background by mutagenesis. […] Activity is expressed as a % of control without drug. Experiments were performed two times.
(§2) The IN coding sequences from the viruses isolated from the plasma of HIV-2-infected patients N1 to N3 and T1 to T7 were amplified by PCR and sequenced according to a previously described procedure. PCR products corresponding to the entire IN sequence were amplified again with the following specific primers containing NdeI and BamH I restriction sites at their 5' ends. Primer 1: N1, N2, T1, T2, 5'-[…]-3'; N3, 5'-[…]-3'; T3-T7, 5'-[…]-3'. Primers 2: N1, 5'-[…]-3'; N2, 5'-[…]-3'; N3, 5'-[…] The amplicons were then ligated into the TA cloning plasmid pGEM-T easy (Promega, Madison, USA). Single (E92Q, T97A, G140S, Q148R, Y143C, N155H) and double (G140S/Q148R, Y143C/N155H, E92Q/Y143C and T97A/Y143C) mutations were introduced into the HIV-2 wild-type N1 sequence by mutagenesis using the QuickChange II site-directed mutagenesis kit (Agilent Technologies, Santa Clara, USA) according to the manufacturer instructions. NdeI - BamH fragments covering the IN coding sequence were then inserted into the expression vector pET-15b.
(§3) The activity of wild-type and mutated INs was determined in vitro, as previously described. Briefly, oligonucleotides (ODN) mimicking the end of the U5 long terminal repeat of the viral genome were radiolabeled with T4 polynucleotide kinase (Biolabs, Ipswich, USA) and [γ-^32P] ATP (3,000 Ci/mmol) (Amersham, GE Healthcare, USA), then purified on a Sephadex G-10 column (GE Healthcare, USA). Double-stranded ODNs were obtained by mixing equimolar amounts of complementary strands in the presence of 100 mM NaCl.

HIV-2 IN Y143C = HIV-2 IN Y143C (Human immunodeficiency virus type 2 subtype B, UniProt Q89928, I1218V/I1301V/I1372V/M1455R/N1185G/N1438H/R1202K/R1392Q/T1348V/T1383A/V1460M/Y1311C); conditions: Y143C in N1 background; 200 nM IN
Procedure: as §1, §2, §3

HIV-2 IN T97A/Y143C = HIV-2 IN T97A/Y143C (Human immunodeficiency virus type 2 subtype B, UniProt Q89928, I1218V/I1301V/I1372V/M1455R/N1185G/N1438H/R1202K/R1392Q/T1265A/T1348V/T1383A/V1460M/Y1311C); conditions: T97A/Y143C in N1 background; 200 nM IN
Procedure: as §1, §2, §3

Cc1nnc(C(=O)NC(C)(C)c2nc(C(=O)NCc3ccc(F)cc3)c(O)c(=O)n2C)o1 [RAL, raltegravir]
resistance to RAL, strand transfer (HIV-2 IN N155H): high level of resistance
resistance to RAL, strand transfer (HIV-2 IN Y143C): did not lead to significant resistance
resistance to RAL, strand transfer (HIV-2 IN T97A/Y143C): did not lead to detectable IN resistance
